In article PMC9585082, “Structural insight into the ligand binding mechanism of aryl hydrocarbon receptor” (Nature Communications, 2022):

How the values were obtained:
mAHR = biological target: T1, mAHR (Mus musculus, UniProt P30561); test: DRE luciferase reporter assay in HEK293T expressing mAHR (agonist at […]); assay type: cell-based
T1 construct: gene Ahr; full-length
T1 sequence (P30561 10-848): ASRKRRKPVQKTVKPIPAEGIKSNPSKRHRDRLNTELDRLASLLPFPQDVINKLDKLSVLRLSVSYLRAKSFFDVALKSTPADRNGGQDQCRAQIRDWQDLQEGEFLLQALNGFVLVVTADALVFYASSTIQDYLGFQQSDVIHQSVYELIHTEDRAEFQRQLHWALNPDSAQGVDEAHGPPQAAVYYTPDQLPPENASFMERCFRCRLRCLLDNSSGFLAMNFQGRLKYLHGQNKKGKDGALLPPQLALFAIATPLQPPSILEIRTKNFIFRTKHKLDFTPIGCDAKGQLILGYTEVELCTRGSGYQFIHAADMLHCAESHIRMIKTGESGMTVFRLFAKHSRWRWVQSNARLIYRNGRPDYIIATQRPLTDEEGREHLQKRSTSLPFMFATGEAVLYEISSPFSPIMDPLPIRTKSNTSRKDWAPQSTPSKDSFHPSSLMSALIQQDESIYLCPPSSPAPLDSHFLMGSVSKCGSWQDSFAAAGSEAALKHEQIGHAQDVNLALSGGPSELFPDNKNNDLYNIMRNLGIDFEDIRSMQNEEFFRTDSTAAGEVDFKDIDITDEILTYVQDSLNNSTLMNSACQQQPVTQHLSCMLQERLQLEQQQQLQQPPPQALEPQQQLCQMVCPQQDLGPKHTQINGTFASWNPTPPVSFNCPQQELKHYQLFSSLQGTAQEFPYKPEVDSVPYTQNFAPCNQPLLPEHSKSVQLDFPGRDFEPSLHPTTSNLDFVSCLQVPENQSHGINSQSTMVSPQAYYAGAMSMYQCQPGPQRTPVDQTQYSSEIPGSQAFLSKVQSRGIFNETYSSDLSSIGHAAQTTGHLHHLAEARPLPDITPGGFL
Excerpt: FICZ, βNF and BaP were supplied

dAHR PAS-B = biological target: T2, dAHR PAS-B (Drosophila melanogaster, UniProt O61543, M284C/Y336L); test: label-free MST; assay type: binding
T2 construct: gene ss; PAS-B domain (residues 264–381)
T2 sequence (O61543 entry or part of it M284C/Y336L): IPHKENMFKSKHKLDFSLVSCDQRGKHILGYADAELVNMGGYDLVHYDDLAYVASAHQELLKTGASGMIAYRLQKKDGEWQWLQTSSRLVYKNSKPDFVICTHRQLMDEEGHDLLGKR

Compound | DRE luciferase reporter assay in HEK293T expressing mAHR (agonist at 200 nM) (mAHR) | Kd (dAHR PAS-B) [µM] | DRE luciferase reporter assay in HEK293T expressing mAHR (agonist at 500 nM) (mAHR)
O=Cc1c2[nH]c3ccccc3c2cc2[nH]c3ccccc3c12 [FICZ] | transactivation of mAHR in HEK293T cells in the presence or absence of agonists. FICZ, βNF and BaP were supplied | ~0.8 | –
c1ccc2c(c1)cc1ccc3cccc4ccc2c1c34 [BaP] | transactivation of mAHR in HEK293T cells in the presence or absence of agonists. FICZ, βNF and BaP were supplied | – | –
O=c1cc(-c2ccccc2)oc2ccc3ccccc3c12 [βNF] | – | ~0.4 | transactivation of mAHR in HEK293T cells in the presence or absence of agonists. FICZ, βNF and BaP were supplied
